{
  "source": "paper PMC10721329",
  "about": "“Quisinostat is a brain-penetrant radiosensitizer in glioblastoma” (JCI Insight, 2023)",
  "key": {"[1]": {"assay": "Total QST levels in plasma and flank tumors (LC-MS/MS)", "assay_type": "in vivo", "conditions": "athymic nude, mouse, 10 mg/kg", "protocol": "QST concentrations in specimens were measured using reverse-phase LC on the AB SCIEX QTRAP6500+ LC-MS/MS system by operating electrospray in the positive ion mode. For liquid chromatographic separation, gradient elution was performed using a Phenomenex Kinetex F5 100 Å column (100 × 2.1 mm, 2.6 μm). The initial composition of the mobile phase was 70% phase A (0.1% formic acid in water) and 30% phase B (0.1% formic acid in 1:1 acetonitrile/methanol) with a 0.35 mL/min flow rate. Gradient elution was achieved as follows: mobile phase (B) was maintained at 30% from 0 to 0.3 minutes, increased to 95% from 0.3 to 0.8 minutes, maintained at 95% from 0.8 to 2.5 minutes, and decreased to 30% from 2.5 to 2.8 minutes. The total run time was 3.5 minutes. The internal standard used in this study was D8-infigratinib. The retention times for QST and D8-infigratinib were 1.6 and 1.8 minutes, respectively. Mass-to-charge ratio transitions were as follows: 395.20 → 144.00 (QST) and 568.08 → 321.00 (D8-infigratinib). LC-MS/MS analysis was performed using an Analyst 1.7 Chromatographic Data System. See Supplemental Methods for detailed PK experiments. […]\ntreated with 2 Gy of ionizing radiation on MWF for a total 6 Gy (3 doses). Ionizing radiation was administered with the RS2000 series biological research irradiator (Rad Source Technologies).\nTreatment of Flank-Implanted Mice with QST and/or Radiation\nImplanted flank tumors were allowed to grow until the tumor size reached 100 mm3 volume. Mice were randomized into groups before treatment and underwent treatment on MWF for the entire duration of the experiment until the tumor volumes exceeded 2000 mm3. Treatment groups included vehicle (50% PEG-300), QST alone (10 mg/kg), flank IR treatment with vehicle (2 Gy), and flank IR treatment (2 Gy) with QST (10 mg/kg). For mice receiving IR treatment with or without QST, mice were treated with 2 Gy on MWF for a total 6 Gy during the first week of treatment. QST was administered to mice through intraperitoneal injections 2 hours before flank tumor radiation treatment. Upon completion of the radiation regimen, IR-treated mice subsequently received QST or vehicle alone for the rest of the experiment. Tumor growth and treatment response were monitored by manually measuring the tumor area twice per week starting at 13 days after implantation. Upon reaching the tumor volume threshold (2000 mm3), mice were sacrificed, and plasma and tissue samples were harvested for PD and PK analyses 2 hours after treatment with a final dose of QST (10 mg/kg). […]\nCalibration Standards and Quality Control Samples\nStock solutions of standard (1 mM QST) and IS (250 µM D8-infigratinib) were prepared in acetonitrile. Working solutions for calibration curve standards and quality controls (QCs) were prepared by dilutions with a 40% methanol mixture aqueous solution. The IS precipitation solution (10 nM) was prepared from the IS stock solutions by dilution with methanol. Calibration standards and batch qualifying QCs were freshly spiked for every batch. For sample analysis in human and mouse matrices, calibration standards were prepared in bulk by spiking appropriate amounts of working solutions into blank human plasma, used as a surrogate matrix due to the instability of QST in mouse plasma. For sample analysis in neural stem cell media and cell lysate, calibration standards were prepared in bulk by spiking appropriate amounts of working solutions into neural stem cell media. QC samples were prepared in bulk by spiking appropriate amounts of working solutions into blank mouse plasma or cell media. Preparation of calibration standards and QC samples was performed at 4 °C. Final concentrations range of the calibration standards were 1–1000 nM in human plasma or neural stem cell media. Three QC levels (low, medium, and high) were used during all sample analyses. The concentrations of QC samples in various matrices were 3 nM (low QC), 22 nM (medium QC), and 800 nM (high QC). All stock […]"}, "GB126 cells": {"test_system": "GB126 cells", "assay": "Cell cycle analysis, propidium iodide flow cytometry", "assay_type": "cell-based, human", "protocol": "(§1) For cell cycle analysis following short -term DMSO or QST treatment in GSC cultures, approximately 1 million cells were harvested, washed in cold 1× PBS once, and fixed with 3–4 mL of ice cold 70% ethanol, added dropwise while vortexing. Cells were fixed on ice for 30 minutes and washed twice with 1× PBS. Cells were then resuspended in 500 μL of propidium iodide/RNAse staining buffer (BD Biosciences, 550825) for 15 minutes at room temperature before analysis. Data from all the samples were obtained using a Fortessa flow cytometer (BD Biosciences) and analyzed using the FlowJo software (TreeStar). Cell cycle analysis was performed in triplicate for all cell lines."}, "BT145 cells": {"test_system": "BT145 cells", "assay": "Cell cycle analysis, propidium iodide flow cytometry", "assay_type": "cell-based, human", "protocol": "as §1"}, "[2]": {"conditions": "QST at IC50, 24 hours, replicates"}},
  "note": "“And” between values parts separate entries of the source, which are not always exact repeats. Equal values may be shown once. Read-outs that look alike come from different tables or passages of the source.",
  "data": [
    {"smiles": "Cn1cc(CNCC2CCN(c3ncc(C(=O)NO)cn3)CC2)c2ccccc21", "note": "[QST, quisinostat]", "values": [
      {"measurement": "concentration at 2 h", "setting": "[1]; flank tumor, intraperitoneal, Combination (QST+IR) cohort, read-out: [QST] total, flank tumor, Mean", "value": 501, "unit": "nM"},
      {"measurement": "concentration at 2 h", "setting": "[1]; flank tumor, intraperitoneal, QST monotherapy cohort, read-out: [QST] total, flank tumor, Mean", "value": 479, "unit": "nM"},
      {"measurement": "concentration at 2 h", "setting": "[1]; flank tumor, ip, QST- and combination-treated mice, 10 mg/kg IP, 2 hours after final dose, read-out: mean total QST concentration in flank tumors", "value": "~433", "unit": "nM"},
      {"measurement": "concentration at 2 h", "setting": "[1]; plasma, intraperitoneal, Combination (QST+IR) cohort, read-out: [QST] total, plasma, Mean", "value": 276, "unit": "nM"},
      {"measurement": "concentration at 2 h", "setting": "[1]; plasma, intraperitoneal, QST monotherapy cohort, read-out: [QST] total, plasma, Mean", "value": 250, "unit": "nM"},
      {"measurement": "concentration at 2 h", "setting": "[1]; plasma, ip, QST- and combination-treated mice, 10 mg/kg IP, 2 hours after final dose, read-out: mean total QST concentration in plasma", "value": "~300", "unit": "nM"},
      {"measurement": "Cell Cycle Phase, G1", "setting": "GB126 cells; [2]", "value": "37.77 and 45.07 and 43.79"},
      {"measurement": "Cell Cycle Phase, G2", "setting": "GB126 cells; [2]", "value": "7.41 and 0 and 1.63"},
      {"measurement": "Cell Cycle Phase, S", "setting": "GB126 cells; [2]", "value": "54.82 and 54.93 and 54.58"},
      {"measurement": "Mean proportion of cells in G1", "setting": "GB126 cells; QST, 24 hours", "value": 42, "unit": "%"},
      {"measurement": "Mean proportion of cells in G2", "setting": "GB126 cells; QST, 24 hours", "value": 3, "unit": "%"},
      {"measurement": "Mean proportion of cells in S", "setting": "GB126 cells; QST, 24 hours", "value": 55, "unit": "%"},
      {"measurement": "Cell Cycle Phase (% of cells), G1", "setting": "BT145 cells; [2]", "value": "33.6% and 37% and 36.8%"},
      {"measurement": "Cell Cycle Phase (% of cells), G2", "setting": "BT145 cells; [2]", "value": "48.8% and 41.5% and 48%"},
      {"measurement": "Cell Cycle Phase (% of cells), S", "setting": "BT145 cells; [2]", "value": "16.4% and 20.3% and 13.8%"},
      {"measurement": "Mean proportion of cells in G1", "setting": "BT145 cells; QST, 24 hours", "value": 36, "unit": "%"},
      {"measurement": "Mean proportion of cells in G2", "setting": "BT145 cells; QST, 24 hours", "value": 46, "unit": "%"},
      {"measurement": "Mean proportion of cells in S", "setting": "BT145 cells; QST, 24 hours", "value": 17, "unit": "%"}
    ]}
  ]
}
